# In publication doi:10.1101/2025.11.24.689453v1, “Structural basis of stereochemical promiscuity by an umami taste receptor ortholog, Tas1r1/Tas1r3 from pufferfish” (biorxiv, 2025):
# Assays:
# [1] = target: T1, pufferfish Tas1r1/Tas1r3LBD ("wild-type", free-cysteine eliminated) (Takifugu rubripes, UniProt Q2MHJ8+Q2MHK1, Q2MHJ8:C238S/Q2MHK1:C242S); assay: differential scanning fluorimetry; type: binding; conditions: read-out: Kd-app
# T1 construct: Tas1r1 Met1-Ser501 with C-terminal PA tag, Tas1r3 Met1-Ser496 with C-terminal FLAG tag; Endo H treated for crystals
# Excerpt: (§1) differential scanning fluorimetry on pufferfish Tas1r1/Tas1r3LBD ("wild-type", free-cysteine eliminated)
# [2] = target: T2, pufferfish Tas1r1/Tas1r3LBD ("wild-type", free-cysteine eliminated) (Takifugu rubripes, UniProt Q2MHJ8+Q2MHK1, Q2MHJ8:C238S/Q2MHK1:C242S/Q2MHK1:Y385F); assay: differential scanning fluorimetry; type: binding; conditions: read-out: Kd-app
# T2 construct: Tas1r1 Met1-Ser501 with C-terminal PA tag, Tas1r3 Met1-Ser496 with C-terminal FLAG tag; Endo H treated for crystals
# Excerpt: as §1
# [3] = target: T3, pufferfish Tas1r1/Tas1r3LBD ("wild-type", free-cysteine eliminated) (Takifugu rubripes, UniProt Q2MHJ8+Q2MHK1, Q2MHJ8:C238S/Q2MHK1:C242S/Q2MHK1:D306A); assay: differential scanning fluorimetry; type: binding; conditions: read-out: Kd-app
# T3 construct: Tas1r1 Met1-Ser501 with C-terminal PA tag, Tas1r3 Met1-Ser496 with C-terminal FLAG tag; Endo H treated for crystals
# Excerpt: as §1
# [4] = target: T4, pufferfish Tas1r1/Tas1r3LBD ("wild-type", free-cysteine eliminated) (Takifugu rubripes, UniProt Q2MHJ8+Q2MHK1, Q2MHJ8:C238S/Q2MHK1:C242S/Q2MHK1:E174A); assay: differential scanning fluorimetry; type: binding; conditions: read-out: Kd-app
# T4 construct: Tas1r1 Met1-Ser501 with C-terminal PA tag, Tas1r3 Met1-Ser496 with C-terminal FLAG tag; Endo H treated for crystals
# Excerpt: as §1
# [5] = target: T5, pufferfish Tas1r1/Tas1r3LBD ("wild-type", free-cysteine eliminated) (Takifugu rubripes, UniProt Q2MHJ8+Q2MHK1, Q2MHJ8:C238S/Q2MHK1:C242S/Q2MHK1:R469V); assay: differential scanning fluorimetry; type: binding; conditions: read-out: Kd-app
# T5 construct: Tas1r1 Met1-Ser501 with C-terminal PA tag, Tas1r3 Met1-Ser496 with C-terminal FLAG tag; Endo H treated for crystals
# Excerpt: as §1
# [6] = target: T6, full-length pufferfish Tas1r1/Tas1r3 (Takifugu rubripes, UniProt Q2MHJ8+Q2MHK1); assay: luminometric Ca2+ response (mt-clytin-II), HEK293T; type: cell-based; conditions: agonist
# T6 construct: full-length heterodimer, transiently expressed in HEK293T with rat G15i2 and mt-apoclytin-II
# T6 sequence (Q2MHK1 25-845): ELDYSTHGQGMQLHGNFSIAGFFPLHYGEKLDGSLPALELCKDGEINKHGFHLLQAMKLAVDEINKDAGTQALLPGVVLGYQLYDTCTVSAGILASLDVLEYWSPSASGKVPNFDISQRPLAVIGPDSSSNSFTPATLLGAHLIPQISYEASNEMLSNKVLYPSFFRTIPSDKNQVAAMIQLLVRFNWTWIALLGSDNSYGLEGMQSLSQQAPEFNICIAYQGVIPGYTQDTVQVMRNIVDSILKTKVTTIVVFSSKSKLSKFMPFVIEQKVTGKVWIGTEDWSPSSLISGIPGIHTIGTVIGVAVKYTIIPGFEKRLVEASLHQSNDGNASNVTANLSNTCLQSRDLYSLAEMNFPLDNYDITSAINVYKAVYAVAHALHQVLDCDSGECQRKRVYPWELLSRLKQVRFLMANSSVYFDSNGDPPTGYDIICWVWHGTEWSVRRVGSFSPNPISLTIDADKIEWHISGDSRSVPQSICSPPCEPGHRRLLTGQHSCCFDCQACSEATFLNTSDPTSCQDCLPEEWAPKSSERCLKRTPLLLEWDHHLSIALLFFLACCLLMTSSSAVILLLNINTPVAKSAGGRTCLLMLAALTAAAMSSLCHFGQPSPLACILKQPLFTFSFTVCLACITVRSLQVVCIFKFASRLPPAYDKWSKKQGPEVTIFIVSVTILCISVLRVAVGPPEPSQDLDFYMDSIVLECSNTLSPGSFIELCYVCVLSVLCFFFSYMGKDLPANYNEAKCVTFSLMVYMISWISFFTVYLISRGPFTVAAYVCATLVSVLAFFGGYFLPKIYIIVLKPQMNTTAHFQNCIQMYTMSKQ
# T6 sequence (Q2MHJ8 20-853): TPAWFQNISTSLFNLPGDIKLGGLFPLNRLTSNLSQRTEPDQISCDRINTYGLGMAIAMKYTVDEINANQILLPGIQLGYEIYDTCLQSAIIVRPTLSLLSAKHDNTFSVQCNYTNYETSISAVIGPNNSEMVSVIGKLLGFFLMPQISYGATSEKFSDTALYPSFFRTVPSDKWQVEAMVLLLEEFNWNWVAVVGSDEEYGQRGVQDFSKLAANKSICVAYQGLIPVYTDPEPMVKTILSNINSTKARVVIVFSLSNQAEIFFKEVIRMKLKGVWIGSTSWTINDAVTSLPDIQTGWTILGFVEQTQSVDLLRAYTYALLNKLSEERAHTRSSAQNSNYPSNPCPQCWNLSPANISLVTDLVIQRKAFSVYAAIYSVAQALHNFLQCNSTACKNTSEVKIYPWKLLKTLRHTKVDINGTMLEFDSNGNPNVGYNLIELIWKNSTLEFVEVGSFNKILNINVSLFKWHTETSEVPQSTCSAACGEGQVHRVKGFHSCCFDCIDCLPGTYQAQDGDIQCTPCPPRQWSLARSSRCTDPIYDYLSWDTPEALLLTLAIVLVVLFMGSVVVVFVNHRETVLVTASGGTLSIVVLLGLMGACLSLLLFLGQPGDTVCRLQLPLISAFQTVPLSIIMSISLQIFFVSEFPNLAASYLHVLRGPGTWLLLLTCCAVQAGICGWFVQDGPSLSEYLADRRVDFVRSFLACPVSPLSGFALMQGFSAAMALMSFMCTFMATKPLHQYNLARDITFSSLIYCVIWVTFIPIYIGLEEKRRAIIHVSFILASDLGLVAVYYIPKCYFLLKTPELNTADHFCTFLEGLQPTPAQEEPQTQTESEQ
# [7] = target: T1, pufferfish Tas1r1/Tas1r3LBD ("wild-type", free-cysteine eliminated); assay: X-ray crystal structure; DSF; type: binding; conditions: orthosteric site in both subunits
Kd [1] [µM],Kd [2] [mM],Kd [3] [mM],Kd [4] [µM],Kd [5] [mM],SMILES,response at 50 mM [6],X-ray crystal structure; DSF [7]
1440 ± 90,1.98 ± 0.12,3.14 ± 0.91,1690 ± 460,1.88 ± 0.14,C[C@@H](N)C(=O)O [D-alanine],D-alanine and D-phenylalanine demonstrated a relatively high extent of binding and evoked low,
126 ± 7,0.186 ± 0.013,0.0979 ± 0.0225,61.4 ± 17.7,0.203 ± 0.013,C[C@H](N)C(=O)O [L-alanine],"The receptor bound and responded to a wide range of L-amino acids, including L-alanine",
345 ± 8,,,,,CN[C@@H](C)C(=O)O [N-methyl-L-alanine],,
1290 ± 140,,,,,CC(C)(N)C(=O)O [2-methylalanine],,
,,,,,N[C@H](Cc1ccccc1)C(=O)O [D-phenylalanine],D-alanine and D-phenylalanine demonstrated a relatively high extent of binding and evoked low,D-phenylalanine-bound Tas1r1/Tas1r3LBD structure also adopts a compact dimerization manner
